Results: patent US20080019968A1, “DETECTION, PREVENTION AND TREATMENT OF BREAST CANCER” (The scripps Reasearch Institute, priority 2004, published 2008)

Tests used:
[1] = test system: antibodies in sera of metastatic breast cancer patients; assay: Glycan array binding of sera of metastatic breast cancer patients; parameters: species or system human; conditions: sera diluted 1:25; for binding of antibodies from breast cancer patients to glycans: 9 metastatic breast cancer patients, IgG, IgM and IgA detected; for level of serum antibodies against the glycan in MBC patients compared to healthy individuals: 9 MBC patients vs ten healthy individuals
Protocol: Individual (not pooled) sera were collected from 9 patients who were diagnosed with metastatic breast cancer (MBC). Blood samples were collected before treatment, so that therapeutic intervention would not interfere with patient immune responses. One patient with breast cancer but with good prognosis (IDC, Stage 1) was also included in the study. As control, or “healthy” sera, sera from ten healthy individuals, 5 female and 5 male, with no known malignancies was collected.
Sera were diluted 1:25 with PBS containing 3% BSA, and placed on the glycan array slide in humidified chamber at room temperature for 90 min. The glycan array slide was then rinsed gently with PBS/0.05% Tween, incubated with biotinylated goat antibody against human IgG, IgM and IgA, rinsed in PBS/0.05% Tween, and incubated with streptavidin-Alexa488 fluorescent dye. Following rinses in PBS/0.05% Tween and H2O, glycan array slides were dried and scanned using the commercial DNA array scanner. […] Signal to background was typically greater 50:1 and no background subtractions were performed. Data were plotted using MS Excel software.

[2] = test system: Human anti-HIV 2G12 monoclonal antibody; assay: Glycan array binding of 2G12; conditions: 2G12 (30 μg/mL) pre-complexed with goat anti-human-IgG-FITC (15 μg/mL)
Excerpt: Glycan array fabrication.
Glycan Binding Protein binding assay.
Image acquisition and signal processing. […] Data were plotted using MS Excel software.

[3] = molecular target: Con A (Canavalia ensiformis, UniProt P02866); conditions: printing times up to 5 hours
Protocol: Glycan Binding Protein binding assay. Printed slides were analyzed without any further modification of the surface. Slides were incubated in either a one step procedure with labeled proteins, or a sandwich procedure in which the bound glycan binding protein (GBP) was overlaid with labeled secondary antibodies or GBP's pre-complexed with labeled antibodies. GBP's were added at a concentration of 5-50 μg/mL in buffer (usually PBS containing 0.005-0.5% Tween-20). Secondary antibodies (10 μg/mL in PBS) were overlaid on bound GBP. GBP-antibody pre-complexes were prepared in a molar ratio of 1:0.5:0.25 (5-50 μg/mL) for GBP:2° antibody:3° antibody, respectively (15 min on ice). […] Slides were subsequently washed by successive rinses in (i) PBS-Tween (0.05%), (ii) PBS and (iii) de-ionized water, then immediately subjected to imaging.
Image acquisition and signal processing. Fluorescence intensities were detected using a ScanArray 5000 (Perkin Elmer, Boston, Mass.) confocal scanner and image analyses were carried out using ImaGene image analysis software (BioDiscovery Inc, El Segundo, Calif.).
Binding of fluorescein-labeled concanavalin A (con A) was used as a measure of ligand coupling.

[4] = molecular target: T1, chST6GalNAc-I (Gallus gallus, UniProt Q92183); assay: chST6GalNAc-I activity on small acceptor molecules; format: biochemical, chicken; conditions: α-D-galacto derivatives as acceptors
T1 construct: made in house; host or cells: insect cells
Excerpt: The inventors have previously reported the cloning, expression, and characterization of chicken ST6GalNAc-I and its use in preparative synthesis of the O-linked sialoside antigens, STn-, α(2-6)SiaT-, α(2-3)SiaT- and Di-SiaT-antigen. Blixt, O.; Allin, K.; Pereira, L.; Datta, A. and Paulson, J. C., J. Am. Chem. Soc. 2002, 124, 5739-5746. Briefly, the recombinant enzyme was expressed in insect cells and purified by CDP-sepharose affinity chromatography to generate approximately 10 U/L of cell culture.

T1 sequence (Q92183 whole entry): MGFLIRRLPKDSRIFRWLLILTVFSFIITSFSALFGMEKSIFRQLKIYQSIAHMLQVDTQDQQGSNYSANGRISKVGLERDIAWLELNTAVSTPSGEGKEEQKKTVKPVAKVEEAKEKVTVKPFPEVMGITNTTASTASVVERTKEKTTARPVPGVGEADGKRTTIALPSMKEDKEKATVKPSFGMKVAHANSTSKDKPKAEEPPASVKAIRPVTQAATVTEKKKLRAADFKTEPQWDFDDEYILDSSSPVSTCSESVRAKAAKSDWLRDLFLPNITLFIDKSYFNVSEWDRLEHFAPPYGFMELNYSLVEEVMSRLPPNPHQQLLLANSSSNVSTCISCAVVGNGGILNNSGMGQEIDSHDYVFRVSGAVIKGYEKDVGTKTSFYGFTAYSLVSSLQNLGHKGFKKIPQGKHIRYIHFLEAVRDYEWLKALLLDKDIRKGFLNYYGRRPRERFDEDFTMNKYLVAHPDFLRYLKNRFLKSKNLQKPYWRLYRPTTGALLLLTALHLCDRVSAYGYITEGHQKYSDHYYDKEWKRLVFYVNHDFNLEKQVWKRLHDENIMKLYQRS

Molecule	binding of antibodies from breast cancer patients to glycans [1]	further results
NNa3Ab4[Fa3]GNb3Ab4GNb#sp1 SLeXLacNAc [glycan 174]	will also bind	–
Ab4GNb3Ab4[Fa3]GNb3Ab4[Fa3]GNb#sp1 LacNAc-LeX-LeX [glycan 73]	will also bind	–
Ma2Ma3[Ma2Ma6]Ma#sp3 [glycan 136]	–	binding of 2G12 to glycans on the array [2]: strong binding; Rel. spec. (relative binding activity of 2G12) ([2]; mannose containing glycans on the array): +++ (+++ >25,000); variation in maximal binding of con A [3]: less than 10%
NNa6Ab4GNb3Ab4GNb#sp1 6SiaLacNAc-LacNAc [glycan 189]	will also bind	–
Man-9#aa Man9-aminoacid [glycan 145]	–	binding of 2G12 to glycans on the array [2]: smaller level of binding
GNb3Ab4GNb#sp1 GlcNAcβ3LacNAc [glycan 124]	will also bind	–
Ab3ANb4[NNa3]Ab4Gb#sp1 GM1 [glycan 58]	bind	level of serum antibodies against the glycan in MBC patients compared to healthy individuals [1]: higher than in the healthy individuals
(Ab4GNb)3#sp1 Tri-LacNAc [glycan 9]	will also bind	–
NNa6Ab4GNb3Ab4[Fa3]GNb3Ab4[Fa3]GNb#sp1 6Sia-LacNAc-LeX-LeX [glycan 188]	will also bind	–
Ab4GNb3Ab4GNb#sp1 LacNAc-LacNAc [glycan 76]	will also bind	–
NNa3Ab4GNb3Ab4GNb3Ab4GNb#sp1 3′Sialyl-tri-LacNAc [glycan 180]	will also bind	–
GNb3Ab4Gb#sp1 LNT-2 [glycan 123]	bind	level of serum antibodies against the glycan in MBC patients compared to healthy individuals [1]: higher than in the healthy individuals
Fa2Ab4GNb3Ab4GNb3Ab4GNb#sp1 H-type2-LacNAc-LacNAc [glycan 107]	will also bind	–
NNa3Ab4GNb3Ab4GNb#sp1 3′SialylDiLacNAc [glycan 179]	will also bind	–
Fa2Ab3Anb3Aa4Ab4G#sp3 Globo-H [glycan 97]	bind	level of serum antibodies against the glycan in MBC patients compared to healthy individuals [1]: higher than in the healthy individuals
NJa6ANa#sp2 Neu5Gc6GalNAc (STn) [glycan 155]	bind	–
NNa6ANa#sp2 6SiaβGalNAc [glycan 190]	bind	level of serum antibodies against the glycan in MBC patients compared to healthy individuals [1]: significantly higher levels
Fa2Ab4GNb3Ab4GNb#sp1 H-type-2-LacNAc [glycan 106]	will also bind	–
CC(=O)N[C@H]1C(O)O[C@H](CO)[C@H](O)[C@@H]1O (stereo partly drawn) [D-GalNAc]	–	chST6GalNAc-I activity, cpm [4]: 0 cpm; chST6GalNAc-I activity, nmol/mg x min^−1 [4]: 0.00 nmol/mg x min^−1
Ceruloplasmine (protein, UniProt P00450 20-1065, looked up) Ceruloplasmin: KEKHYYIGIIETTWDYASDHGEKKLISVDTEHSNIYLQNGPDRIGRLYKKALYLQYTDETFRTTIEKPVWLGFLGPIIKAETGDKVYVHLKNLASRPYTFHSHGITYYKEHEGAIYPDNTTDFQRADDKVYPGEQYTYMLLATEEQSPGEGDGNCVTRIYHSHIDAPKDIASGLIGPLIICKKDSLDKEKEKHIDREFVVMFSVVDENFSWYLEDNIKTYCSEPEKVDKDNEDFQESNRMYSVNGYTFGSLPGLSMCAEDRVKWYLFGMGNEVDVHAAFFHGQALTNKNYRIDTINLFPATLFDAYMVAQNPGEWMLSCQNLNHLKAGLQAFFQVQECNKSSSKDNIRGKHVRHYYIAAEEIIWNYAPSGIDIFTKENLTAPGSDSAVFFEQGTTRIGGSYKKLVYREYTDASFTNRKERGPEEEHLGILGPVIWAEVGDTIRVTFHNKGAYPLSIEPIGVRFNKNNEGTYYSPNYNPQSRSVPPSASHVAPTETFTYEWTVPKEVGPTNADPVCLAKMYYSAVEPTKDIFTGLIGPMKICKKGSLHANGRQKDVDKEFYLFPTVFDENESLLLEDNIRMFTTAPDQVDKEDEDFQESNKMHSMNGFMYGNQPGLTMCKGDSVVWYLFSAGNEADVHGIYFSGNTYLWRGERRDTANLFPQTSLTLHMWPDTEGTFNVECLTTDHYTGGMKQKYTVNQCRRQSEDSTFYLGERTYYIAAVEVEWDYSPQREWEKELHHLQEQNVSNAFLDKGEFYIGSKYKKVVYRQYTDSTFRVPVERKAEEEHLGILGPQLHADVGDKVKIIFKNMATRPYSIHAHGVQTESSTVTPTLPGETLTYVWKIPERSGAGTEDSACIPWAYYSTVDQVKDLYSGLIGPLIVCRRPYLKVFNPRRKLEFALLFLVFDENESWYLDDNIKTYSDHPEKVNKDDEEFIESNKMHAINGRMFGNLQGLTMHVGDEVNWYLMGMGNEIDLHTVHFHGHSFQYKHRGVYSSDVFDIFPGTYQTLEMFPRTPGIWLLHCHVTDHIHAGMETTYTVLQNEDTKSG	bind	level of serum antibodies against the glycan in MBC patients compared to healthy individuals [1]: significantly higher levels
